Common to all, as to format: cell-based
The target in one assay is T1, alpha2C receptor (Homo sapiens, UniProt P18825).
T1 construct: expressed in transfected cells; host or cells: NIH-3T3
T1 sequence (P18825 1-462): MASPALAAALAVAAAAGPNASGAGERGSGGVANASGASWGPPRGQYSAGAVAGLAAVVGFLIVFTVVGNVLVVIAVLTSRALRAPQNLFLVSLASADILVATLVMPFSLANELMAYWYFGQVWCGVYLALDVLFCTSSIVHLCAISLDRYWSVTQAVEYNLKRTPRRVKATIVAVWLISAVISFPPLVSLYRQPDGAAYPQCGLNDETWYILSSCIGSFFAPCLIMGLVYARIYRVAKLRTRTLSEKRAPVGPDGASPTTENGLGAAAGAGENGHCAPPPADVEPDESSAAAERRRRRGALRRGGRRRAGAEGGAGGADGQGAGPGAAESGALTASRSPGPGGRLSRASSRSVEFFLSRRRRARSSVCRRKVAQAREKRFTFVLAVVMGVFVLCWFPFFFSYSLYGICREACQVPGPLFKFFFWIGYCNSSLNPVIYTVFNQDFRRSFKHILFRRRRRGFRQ
Kind of assay: Receptor Selection and Amplification Technology (RSAT) assay, alpha2C. As to conditions: for EC50: RSAT, NIH-3T3 cells cotransfected with receptor and Gq/i5, not active = not active at concentrations less than 10 micromolar, read-out: Alpha 2C EC50; for Alpha 2C IA (intrinsic activity): ratio of maximal effect of the drug to maximal effect of standard full agonist brimonidine (UK14304). The essentials:
(§1)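 NIH-3T3 cells cotransfected with receptor, Gq/i5 and β-galactosidase, incubated with drug 72-96 h at 37° C; proliferation read as β-gal activity (o-nitrophenyl-β-D-galactopyranoside, OD420).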

Another assay addresses T2, alpha2B receptor (Homo sapiens, UniProt P18089).
T2 construct: expressed in transfected cells; host or cells: NIH-3T3
T2 sequence (P18089 1-450): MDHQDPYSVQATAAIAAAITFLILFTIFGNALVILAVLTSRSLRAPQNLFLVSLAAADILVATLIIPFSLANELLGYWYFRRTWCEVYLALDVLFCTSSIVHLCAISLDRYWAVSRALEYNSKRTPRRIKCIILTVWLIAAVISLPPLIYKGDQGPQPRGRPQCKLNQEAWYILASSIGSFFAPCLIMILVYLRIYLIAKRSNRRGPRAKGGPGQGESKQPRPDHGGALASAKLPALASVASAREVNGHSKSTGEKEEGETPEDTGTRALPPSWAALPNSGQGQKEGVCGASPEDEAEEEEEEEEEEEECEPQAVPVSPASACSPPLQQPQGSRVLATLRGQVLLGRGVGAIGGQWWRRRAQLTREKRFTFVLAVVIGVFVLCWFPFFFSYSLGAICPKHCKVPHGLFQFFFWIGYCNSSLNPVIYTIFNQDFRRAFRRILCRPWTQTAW
Description: Receptor Selection and Amplification Technology (RSAT) assay, alpha2B. The note with it: for EC50: RSAT, NIH-3T3 cells cotransfected with receptor and Gq/i5, not active = not active at concentrations less than 10 micromolar, read-out: Alpha 2B EC50; for Alpha 2B IA (intrinsic activity): ratio of maximal effect of the drug to maximal effect of standard full agonist brimonidine (UK14304). The essentials:
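NIH-3T3 cells cotransfected with β-galactosidase marker, human alpha2B receptor and Gq/i5 chimera, then exposed to drug in triplicate for 72-96 h at 37 °C. Proliferation read as β-galactosidase activity (o-nitrophenyl-β-D-galactopyranoside, overnight 30 °C, OD 420 nm). Intrinsic activity relative to brimonidine maximum; EC50 at half-maximal effect.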

The target of the next assay is T3, alpha2A receptor (Homo sapiens, UniProt P08913).
T3 construct: expressed in transfected cells; host or cells: NIH-3T3
T3 sequence (P08913 1-465): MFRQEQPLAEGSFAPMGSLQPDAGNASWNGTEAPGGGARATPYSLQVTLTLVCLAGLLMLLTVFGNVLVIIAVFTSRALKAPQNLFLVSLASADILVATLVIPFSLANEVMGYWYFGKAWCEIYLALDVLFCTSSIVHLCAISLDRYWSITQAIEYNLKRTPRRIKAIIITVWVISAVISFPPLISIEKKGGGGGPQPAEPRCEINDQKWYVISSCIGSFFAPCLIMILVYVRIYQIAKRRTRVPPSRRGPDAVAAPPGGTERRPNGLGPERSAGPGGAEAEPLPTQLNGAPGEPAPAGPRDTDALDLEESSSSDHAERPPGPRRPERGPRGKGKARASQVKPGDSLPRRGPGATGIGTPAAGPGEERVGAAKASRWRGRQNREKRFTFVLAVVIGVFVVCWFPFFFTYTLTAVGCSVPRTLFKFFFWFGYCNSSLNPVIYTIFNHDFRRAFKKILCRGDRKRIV
Kind of assay: Receptor Selection and Amplification Technology (RSAT) assay, alpha2A. As to conditions: for EC50: RSAT, NIH-3T3 cells cotransfected with receptor and Gq/i5, not active = not active at concentrations less than 10 micromolar, read-out: Alpha 2A EC50; for Alpha 2A IA (intrinsic activity): ratio of maximal effect of the drug to maximal effect of standard full agonist brimonidine (UK14304). In outline: as §1

The EC50 is the midpoint of the concentration-response curve. As for `O=C(NCCF)NC1CCc2ccc(Cl)cc21` (stereo not drawn), on alpha2C receptor, the EC50 was 86 nM and the “Alpha 2C IA (intrinsic activity)” value is listed as 0.7. In addition, at alpha2B receptor, the half-maximal effective concentration (EC50) is 12 nM and the “Alpha 2B IA (intrinsic activity)” value is listed as 0.99. At alpha2A receptor, the 50% effective concentration (EC50) was determined as 343 nM and the “Alpha 2A IA (intrinsic activity)” value is recorded as 0.63.

Turning to `O=C(NCCF)NC1CCc2c(Cl)cccc21` (stereo not drawn), on alpha2C receptor, the EC50 was 116 nM and the “Alpha 2C IA (intrinsic activity)” value was 1.1. On alpha2B receptor, the EC50 was determined as 2.5 nM and the “Alpha 2B IA (intrinsic activity)” value is listed as 1.03. Also, on alpha2A receptor, the EC50 turned out to be 34.9 nM and the “Alpha 2A IA (intrinsic activity)” value came out at 1.05.

On to `O=C(NCCF)NC1CCc2c(Br)cccc21` (stereo not drawn), for which, at alpha2C receptor, the EC50 is 103 nM and the “Alpha 2C IA (intrinsic activity)” value came to 0.7. Moreover, on alpha2B receptor, the concentration giving a half-maximal response (EC50) turned out to be 2.7 nM and the “Alpha 2B IA (intrinsic activity)” value is 1.06. Besides, on alpha2A receptor, the half-maximal effective concentration (EC50) worked out at 64.6 nM and the “Alpha 2A IA (intrinsic activity)” value amounted to 0.97.

For `O=C(NCCF)NC1CCc2c(F)cccc21` (stereo not drawn), at alpha2C receptor, the 50% effective concentration (EC50) worked out at 107 nM and the “Alpha 2C IA (intrinsic activity)” value amounted to 0.68. Also, at alpha2B receptor, the concentration for a half-maximal effect (EC50) was 1.8 nM and the “Alpha 2B IA (intrinsic activity)” value turned out to be 1.05. Further, on alpha2A receptor, the 50% effective concentration (EC50) was 130 nM and the “Alpha 2A IA (intrinsic activity)” value was 0.76.

As for `O=C(NCCF)NC1CCCc2c(Cl)cccc21` (stereo not drawn), on alpha2C receptor, the 50% effective concentration (EC50) is 310 nM and the “Alpha 2C IA (intrinsic activity)” value is given as 0.72. Further, on alpha2B receptor, the EC50 was found to be 29 nM and the “Alpha 2B IA (intrinsic activity)” value is given as 1.11. For the same molecule, on alpha2A receptor, the EC50 was found to be 168 nM and the “Alpha 2A IA (intrinsic activity)” value worked out at 0.42.

For the molecule `Cc1cccc2c1CCCC2NC(=O)NCCF` (stereo not drawn), at alpha2C receptor, the EC50 came out at 123 nM and the “Alpha 2C IA (intrinsic activity)” value was 1.03. In addition, on alpha2B receptor, the EC50 is 5.6 nM and the “Alpha 2B IA (intrinsic activity)” value is recorded as 1.3. In addition, on alpha2A receptor, the EC50 was 48 nM and the “Alpha 2A IA (intrinsic activity)” value worked out at 0.41.

Consider `O=C(NCCF)NC1CCCc2c(Br)cccc21` (stereo not drawn), for which, at alpha2C receptor, the EC50 stood at 204 nM and the “Alpha 2C IA (intrinsic activity)” value was determined as 0.53. Besides, at alpha2B receptor, the concentration giving a half-maximal response (EC50) stood at 20.3 nM and the “Alpha 2B IA (intrinsic activity)” value amounted to 0.91. At alpha2A receptor, the EC50 was 146 nM and the “Alpha 2A IA (intrinsic activity)” value was found to be 0.41.

For the molecule `O=C(NCCF)NC1CCCc2c(F)cccc21` (stereo not drawn), on alpha2C receptor, the 50% effective concentration (EC50) was 107 nM and the “Alpha 2C IA (intrinsic activity)” value is given as 0.76. Further, on alpha2B receptor, the concentration giving a half-maximal response (EC50) is 8.2 nM and the “Alpha 2B IA (intrinsic activity)” value was 1.03. On alpha2A receptor, the EC50 turned out to be 68.3 nM and the “Alpha 2A IA (intrinsic activity)” value is 0.52.

(Values after US7598417B2, “Substituted fluoroethyl ureas as alpha 2 adrenergic agents” (Allergan, Inc., priority 2007, dated 2009).)
